Patent publication US11358952B2, “Substituted 4-aminoisoindoline-1,3-dione compounds, compositions thereof, and methods of treatment therewith” (Celgene Corporation, priority 2018, dated 2022)

Test system: SU-DHL-4 cell line
Assay: SU-DHL-4 cell proliferation assay (Cell Titer-Glo viability)
Type: cell-based
Details: Homo sapiens; cell viability IC50 activity level, DLBCL cell line SU-DHL-4, 120 hours post-treatment; read-out: SU-DHL-4 Act
How it was run: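 Viability read by ATP luminescence (Cell Titer-Glo) at the start and after 120 h of growth at 37°C in 5% CO2. DLBCL cells were seeded at 500 per well with compound across 0.5 nM–10 μM in 20 points, 0.1% DMSO. A four-parameter sigmoidal fit gave IC50 as 50% of DMSO control.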

IC50 [nM] | Structure (SMILES)
< 200 | CC(C)S(=O)(=O)N1CCN(Cc2ccc(CNc3cccc4c3C(=O)N(C3CCC(=O)NC3=O)C4=O)c(F)c2)CC1 (stereo not drawn) [Cpd 175, 2-(2,6-dioxopiperidin-3-yl)-4-(2-fluoro-4-((4-(isopropylsulfonyl)piperazin-1-yl)methyl)benzylamino)isoindoline-1,3-dione]
< 200 | O=C1CCC(N2C(=O)c3cccc(NCc4ccc(CN5CCN(c6noc7ccccc67)CC5)cc4F)c3C2=O)C(=O)N1 (stereo not drawn) [Cpd 176, 4-(4-((4-(benzo[d]isoxazol-3-yl)piperazin-1-yl)methyl)-2-fluorobenzylamino)-2-(2,6-dioxopiperidin-3-yl)isoindoline-1,3-dione]
< 200 | O=C1CCC(N2C(=O)c3cccc(NCc4ccc(CN5CCN(c6nnc(C(F)(F)F)s6)CC5)cc4F)c3C2=O)C(=O)N1 (stereo not drawn) [Cpd 177, 2-(2,6-dioxopiperidin-3-yl)-4-(2-fluoro-4-((4-(5-(trifluoromethyl)-1,3,4-thiadiazol-2-yl)piperazin-1-yl)methyl)benzylamino)isoindoline-1,3-dione]
200 to 500 | Cc1nnc(C2CCN(Cc3ccc(CNc4cccc5c4C(=O)N(C4CCC(=O)NC4=O)C5=O)c(F)c3)CC2)o1 (stereo not drawn) [Cpd 178, 2-(2,6-dioxopiperidin-3-yl)-4-(2-fluoro-4-((4-(5-methyl-1,3,4-oxadiazol-2-yl)piperidin-1-yl)methyl)benzylamino)isoindoline-1,3-dione]
751 to 1000 | Cc1cc(CNc2cccc3c2C(=O)N(C2CCC(=O)NC2=O)C3=O)ccc1CN1CCN(c2cccnc2C(N)=O)CC1 (stereo not drawn) [Cpd 179, 3-(4-(4-((2-(2,6-dioxopiperidin-3-yl)-1,3-dioxoisoindolin-4-ylamino)methyl)-2-methylbenzyl)piperazin-1-yl)picolinamide]
200 to 500 | NC(=O)c1ncccc1N1CCN(Cc2ccc(CNc3cccc4c3C(=O)N(C3CCC(=O)NC3=O)C4=O)c(F)c2)CC1 (stereo not drawn) [Cpd 180, 3-(4-(4-((2-(2,6-dioxopiperidin-3-yl)-1,3-dioxoisoindolin-4-ylamino)methyl)-3-fluorobenzyl)piperazin-1-yl)picolinamide]
< 200 | NC(=O)c1cccc(N2CCN(Cc3ccc(CNc4cccc5c4C(=O)N(C4CCC(=O)NC4=O)C5=O)cc3)CC2)n1 (stereo not drawn) [Cpd 181, 6-(4-(4-((2-(2,6-dioxopiperidin-3-yl)-1,3-dioxoisoindolin-4-ylamino)methyl)benzyl)piperazin-1-yl)picolinamide]
< 200 | Cc1cc(CNc2cccc3c2C(=O)N(C2CCC(=O)NC2=O)C3=O)ccc1CN1CCN(c2cccc(C(N)=O)n2)CC1 (stereo not drawn) [Cpd 182, 6-(4-(4-((2-(2,6-dioxopiperidin-3-yl)-1,3-dioxoisoindolin-4-ylamino)methyl)-2-methylbenzyl)piperazin-1-yl)picolinamide]
< 200 | NC(=O)c1cccc(N2CCN(Cc3ccc(CNc4cccc5c4C(=O)N(C4CCC(=O)NC4=O)C5=O)cc3F)CC2)n1 (stereo not drawn) [Cpd 183, 6-(4-(4-((2-(2,6-dioxopiperidin-3-yl)-1,3-dioxoisoindolin-4-ylamino)methyl)-2-fluorobenzyl)piperazin-1-yl)picolinamide]
< 200 | NC(=O)c1cccc(N2CCN(Cc3ccc(CNc4cccc5c4C(=O)N(C4CCC(=O)NC4=O)C5=O)c(F)c3)CC2)n1 (stereo not drawn) [Cpd 184, 6-(4-(4-((2-(2,6-dioxopiperidin-3-yl)-1,3-dioxoisoindolin-4-ylamino)methyl)-3-fluorobenzyl)piperazin-1-yl)picolinamide]
200 to 500 | O=C1CCC(N2C(=O)c3cccc(NCc4ccc(CN5CCN(c6cnccn6)CC5)cc4)c3C2=O)C(=O)N1 (stereo not drawn) [Cpd 185, 2-(2,6-dioxopiperidin-3-yl)-4-(4-((4-(pyrazin-2-yl)piperazin-1-yl)methyl)benzylamino)isoindoline-1,3-dione]
751 to 1000 | Cc1cncc(N2CCN(Cc3ccc(CNc4cccc5c4C(=O)N(C4CCC(=O)NC4=O)C5=O)cc3)CC2)n1 (stereo not drawn) [Cpd 186, 2-(2,6-dioxopiperidin-3-yl)-4-(4-((4-(6-methylpyrazin-2-yl)piperazin-1-yl)methyl)benzylamino)isoindoline-1,3-dione]
200 to 500 | O=C1CCC(N2C(=O)c3cccc(NCc4ccc(CN5CCN(c6noc7ccccc67)CC5)cc4)c3C2=O)C(=O)N1 (stereo not drawn) [Cpd 187, 4-(4-((4-(benzo[d]isoxazol-3-yl)piperazin-1-yl)methyl)benzylamino)-2-(2,6-dioxopiperidin-3-yl)isoindoline-1,3-dione]
751 to 1000 | O=C1CCC(N2C(=O)c3cccc(NCc4ccc(CN5CCN(C(=O)c6ccccc6F)CC5)cc4F)c3C2=O)C(=O)N1 (stereo not drawn) [Cpd 188, 2-(2,6-dioxopiperidin-3-yl)-4-(2-fluoro-4-((4-(2-fluorobenzoyl)piperazin-1-yl)methyl)benzylamino)isoindoline-1,3-dione]
200 to 500 | NC(=O)c1cc(N2CCN(Cc3ccc(CNc4cccc5c4C(=O)N(C4CCC(=O)NC4=O)C5=O)cc3)CC2)ccn1 (stereo not drawn) [Cpd 189, 4-(4-(4-((2-(2,6-dioxopiperidin-3-yl)-1,3-dioxoisoindolin-4-ylamino)methyl)benzyl)piperazin-1-yl)picolinamide]
200 to 500 | Cc1cc(CNc2cccc3c2C(=O)N(C2CCC(=O)NC2=O)C3=O)ccc1CN1CCN(c2ccnc(C(N)=O)c2)CC1 (stereo not drawn) [Cpd 190, 4-(4-(4-((2-(2,6-dioxopiperidin-3-yl)-1,3-dioxoisoindolin-4-ylamino)methyl)-2-methylbenzyl)piperazin-1-yl)picolinamide]
501 to 750 | NC(=O)c1cc(N2CCN(Cc3ccc(CNc4cccc5c4C(=O)N(C4CCC(=O)NC4=O)C5=O)cc3F)CC2)ccn1 (stereo not drawn) [Cpd 191, 4-(4-(4-((2-(2,6-dioxopiperidin-3-yl)-1,3-dioxoisoindolin-4-ylamino)methyl)-2-fluorobenzyl)piperazin-1-yl)picolinamide]
< 200 | NC(=O)c1cc(N2CCN(Cc3ccc(CNc4cccc5c4C(=O)N(C4CCC(=O)NC4=O)C5=O)c(F)c3)CC2)ccn1 (stereo not drawn) [Cpd 192, 4-(4-(4-((2-(2,6-dioxopiperidin-3-yl)-1,3-dioxoisoindolin-4-ylamino)methyl)-3-fluorobenzyl)piperazin-1-yl)picolinamide]
200 to 500 | Cc1nnc(N2CCN(Cc3ccc(CNc4cccc5c4C(=O)N(C4CCC(=O)NC4=O)C5=O)cc3)CC2)s1 (stereo not drawn) [Cpd 193, 2-(2,6-dioxopiperidin-3-yl)-4-(4-((4-(5-methyl-1,3,4-thiadiazol-2-yl)piperazin-1-yl)methyl)benzylamino)isoindoline-1,3-dione]
< 200 | Cc1nsc(N2CCN(Cc3ccc(CNc4cccc5c4C(=O)N(C4CCC(=O)NC4=O)C5=O)cc3)CC2)n1 (stereo not drawn) [Cpd 194, 2-(2,6-dioxopiperidin-3-yl)-4-(4-((4-(3-methyl-1,2,4-thiadiazol-5-yl)piperazin-1-yl)methyl)benzylamino)isoindoline-1,3-dione]
200 to 500 | Cn1cc(N2CCN(Cc3ccc(CNc4cccc5c4C(=O)N(C4CCC(=O)NC4=O)C5=O)cc3)CC2)cn1 (stereo not drawn) [Cpd 195, 2-(2,6-dioxopiperidin-3-yl)-4-(4-((4-(1-methyl-1H-pyrazol-4-yl)piperazin-1-yl)methyl)benzylamino)isoindoline-1,3-dione]
< 200 | O=C1CCC(N2C(=O)c3cccc(NCc4ccc(CN5CCN(c6ncsn6)CC5)cc4)c3C2=O)C(=O)N1 (stereo not drawn) [Cpd 196, 4-(4-((4-(1,2,4,-thiadiazol-3-yl)piperazin-1-yl)methyl)benzylamino)-2-(2,6-dioxopiperidin-3-yl)isoindoline-1,3-dione]
< 200 | CCc1nsc(N2CCN(Cc3ccc(CNc4cccc5c4C(=O)N(C4CCC(=O)NC4=O)C5=O)cc3)CC2)n1 (stereo not drawn) [Cpd 197, 2-(2,6-dioxopiperidin-3-yl)-4-(4-((4-(3-ethyl-1,2,4-thiadiazol-5-yl)piperazin-1-yl)methyl)benzylamino)isoindoline-1,3-dione]
751 to 1000 | CCc1nnc(N2CCN(Cc3ccc(CNc4cccc5c4C(=O)N(C4CCC(=O)NC4=O)C5=O)cc3)CC2)o1 (stereo not drawn) [Cpd 198, 2-(2,6-dioxopiperidin-3-yl)-4-(4-((4-(5-ethyl-1,3,4-oxadiazol-2-yl)piperazin-1-yl)methyl)benzylamino)isoindoline-1,3-dione]
< 200 | Cc1cc(N2CCN(Cc3ccc(CNc4cccc5c4C(=O)N(C4CCC(=O)NC4=O)C5=O)cc3)CC2)no1 (stereo not drawn) [Cpd 199, 2-(2,6-dioxopiperidin-3-yl)-4-(4-((4-(5-methylisoxazol-3-yl)piperazin-1-yl)methyl)benzylamino)isoindoline-1,3-dione]
< 200 | Cc1cc(CNc2cccc3c2C(=O)N(C2CCC(=O)NC2=O)C3=O)ccc1CN1CC2(CCCC2)C1 (stereo not drawn) [Cpd 200, 4-(4-(2-azaspiro[3.4]octan-2-ylmethyl)-3-methylbenzylamino)-2-(2,6-dioxopiperidin-3-yl)isoindoline-1,3-dione]
< 200 | Cc1cc(CNc2cccc3c2C(=O)N(C2CCC(=O)NC2=O)C3=O)ccc1CN1CC(N2CCOCC2)C1 (stereo not drawn) [Cpd 201, 2-(2,6-dioxopiperidin-3-yl)-4-(3-methyl-4-((3-morpholinoazetidin-1-yl)methyl)benzylamino)isoindoline-1,3-dione]
< 200 | Cc1cc(CNc2cccc3c2C(=O)N(C2CCC(=O)NC2=O)C3=O)ccc1CN1CC(C(C)C)C1 (stereo not drawn) [Cpd 202, 2-(2,6-dioxopiperidin-3-yl)-4-(4-((3-isopropylazetidin-1-yl)methyl)-3-methylbenzylamino)isoindoline-1,3-dione]
< 200 | NC(=O)c1ccc(N2CCN(Cc3ccc(CNc4cccc5c4C(=O)N([C@H]4CCC(=O)NC4=O)C5=O)cc3)CC2)nc1 [Cpd 203, (S)-6-(4-(4-((2-(2,6-dioxopiperidin-3-yl)-1,3-dioxoisoindolin-4-ylamino)methyl)benzyl)piperazin-1-yl)nicotinamide]
< 200 | NC(=O)c1ccc(N2CCN(Cc3ccc(CNc4cccc5c4C(=O)N([C@@H]4CCC(=O)NC4=O)C5=O)cc3)CC2)nc1 [Cpd 204, (R)-6-(4-(4-((2-(2,6-dioxopiperidin-3-yl)-1,3-dioxoisoindolin-4-ylamino)methyl)benzyl)piperazin-1-yl)nicotinamide]
